Source: PubChem BioAssay (NCI)
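Abbreviation: GI50, concentration required for 50% inhibition of growth. At the TGI there is no net growth.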

Assays:
Test in all cases: DTP human tumour cell line panel, 384-well format
A498 renal = tested on: A498 renal
A549 NSCLC = tested on: A549 NSCLC
DU-145 prostate = tested on: DU-145 prostate
786-0 renal = tested on: 786-0 renal
MOLT-4 leukemia = tested on: MOLT-4 leukemia
KM12 colon = tested on: KM12 colon
UO-31 renal = tested on: UO-31 renal
OVCAR-8 ovarian = tested on: OVCAR-8 ovarian
HOP-62 NSCLC = tested on: HOP-62 NSCLC
UACC-62 melanoma = tested on: UACC-62 melanoma
SK-MEL-28 melanoma = tested on: SK-MEL-28 melanoma
PC-3 prostate = tested on: PC-3 prostate
RXF 393 renal = tested on: RXF 393 renal
MCF7 breast = tested on: MCF7 breast
T-47D breast = tested on: T-47D breast
SNB-75 CNS = tested on: SNB-75 CNS
TK-10 renal = tested on: TK-10 renal
MDA-MB-231 breast = tested on: MDA-MB-231 breast
IGROV1 ovarian = tested on: IGROV1 ovarian
HCT-15 colon = tested on: HCT-15 colon
SF-295 CNS = tested on: SF-295 CNS
OVCAR-5 ovarian = tested on: OVCAR-5 ovarian
SW-620 colon = tested on: SW-620 colon
SK-OV-3 ovarian = tested on: SK-OV-3 ovarian
MDA-MB-468 breast = tested on: MDA-MB-468 breast
NCI-H460 NSCLC = tested on: NCI-H460 NSCLC
NCI-H23 lung = tested on: NCI-H23 lung
RPMI-8226 leukemia = tested on: RPMI-8226 leukemia
HL-60(TB) leukemia = tested on: HL-60(TB) leukemia
HT29 colon = tested on: HT29 colon
MALME-3M melanoma = tested on: MALME-3M melanoma
OVCAR-4 ovarian = tested on: OVCAR-4 ovarian
SF-268 CNS = tested on: SF-268 CNS
SK-MEL-5 melanoma = tested on: SK-MEL-5 melanoma
SNB-19 CNS = tested on: SNB-19 CNS
EKVX NSCLC = tested on: EKVX NSCLC
COLO 205 colon = tested on: COLO 205 colon
MDA-MB-435 melanoma = tested on: MDA-MB-435 melanoma
M14 melanoma = tested on: M14 melanoma
SR leukemia = tested on: SR leukemia
SF-539 CNS = tested on: SF-539 CNS
HCC-2998 colon = tested on: HCC-2998 colon
HOP-92 NSCLC = tested on: HOP-92 NSCLC
BT-549 breast = tested on: BT-549 breast
SN12C renal = tested on: SN12C renal
CAKI-1 renal = tested on: CAKI-1 renal
NCI-H226 lung = tested on: NCI-H226 lung
NCI-H322M lung = tested on: NCI-H322M lung
NCI-H522 lung = tested on: NCI-H522 lung
LOX IMVI melanoma = tested on: LOX IMVI melanoma
NCI/ADR-RES ovarian = tested on: NCI/ADR-RES ovarian
K-562 leukemia = tested on: K-562 leukemia
OVCAR-3 ovarian = tested on: OVCAR-3 ovarian
CCRF-CEM leukemia = tested on: CCRF-CEM leukemia
HS 578T breast = tested on: HS 578T breast
UACC-257 melanoma = tested on: UACC-257 melanoma
ACHN renal = tested on: ACHN renal

C[C@@H]1COCCN1c1nc(-c2cnc(N)cc2C(F)F)nc(N2[C@H](C)COC[C@@H]2C)n1
GI50 (A498 renal): 23.1 nM | TGI (A498 renal): 407 nM | GI50 (A549 NSCLC): 52.9 nM | TGI (A549 NSCLC): 3.89 µM | GI50 (DU-145 prostate): 143 nM | TGI (DU-145 prostate): 10.4 µM | GI50 ([…]-0 renal): 116 nM | TGI (786-0 renal): 2780 nM | GI50 (MOLT-4 leukemia): 90.3 nM | TGI (MOLT-4 leukemia): 508 nM | GI50 (KM12 colon): 144 nM | TGI (KM12 colon): 3.09 µM | GI50 (UO-31 renal): 290 nM | TGI (UO-31 renal): 16.3 µM | GI50 (OVCAR-8 ovarian): 165 nM | TGI (OVCAR-8 ovarian): 11.6 µM | GI50 (HOP-62 NSCLC): 145 nM | TGI (HOP-62 NSCLC): 4.22 µM | GI50 (UACC-62 melanoma): 114 nM | TGI (UACC-62 melanoma): 899 nM | GI50 (SK-MEL-28 melanoma): 121 nM | TGI (SK-MEL-28 melanoma): 1170 nM | GI50 (PC-3 prostate): 84.5 nM | TGI (PC-3 prostate): 1960 nM | GI50 (RXF 393 renal): 73.2 nM | TGI (RXF 393 renal): 4.44 µM | GI50 (MCF7 breast): 36.6 nM | TGI (MCF7 breast): 1360 nM | GI50 (T-47D breast): 18.7 nM | TGI (T-47D breast): 156 nM | GI50 (SNB-75 CNS): 54.9 nM | TGI (SNB-75 CNS): 2100 nM | GI50 (TK-10 renal): 232 nM | TGI (TK-10 renal): 4.55 µM | GI50 (MDA-MB-231 breast): 61.4 nM | TGI (MDA-MB-231 breast): 14.4 µM | GI50 (IGROV1 ovarian): 36 nM | TGI (IGROV1 ovarian): 238 nM | GI50 (HCT-15 colon): 59 nM | TGI (HCT-15 colon): 1330 nM | GI50 (SF-295 CNS): 41.4 nM | TGI (SF-295 CNS): 369 nM | GI50 (OVCAR-5 ovarian): 141 nM | TGI (OVCAR-5 ovarian): 2280 nM | GI50 (SW-620 colon): 319 nM | TGI (SW-620 colon): 11.5 µM | GI50 (SK-OV-3 ovarian): 53.3 nM | TGI (SK-OV-3 ovarian): 595 nM | GI50 (MDA-MB-468 breast): 54 nM | TGI (MDA-MB-468 breast): 236 nM | GI50 (NCI-H460 NSCLC): 38.2 nM | TGI (NCI-H460 NSCLC): 1510 nM | GI50 (NCI-H23 lung): 264 nM | TGI (NCI-H23 lung): 2600 nM | GI50 (RPMI-8226 leukemia): 16.6 nM | TGI (RPMI-8226 leukemia): 48.5 nM | GI50 (HL-60(TB) leukemia): 466 nM | TGI (HL-60(TB) leukemia): 1660 nM | GI50 (HT29 colon): 281 nM | TGI (HT29 colon): 2440 nM | GI50 (MALME-3M melanoma): 27.1 nM | TGI (MALME-3M melanoma): 218 nM | GI50 (OVCAR-4 ovarian): 68.3 nM | TGI (OVCAR-4 ovarian): 376 nM | GI50 (SF-268 CNS): 228 nM | TGI (SF-268 CNS): 7.71 µM | GI50 (SK-MEL-5 melanoma): 53.8 nM | TGI (SK-MEL-5 melanoma): 312 nM | GI50 (SNB-19 CNS): 711 nM | TGI (SNB-19 CNS): 16.1 µM | GI50 (EKVX NSCLC): 122 nM | TGI (EKVX NSCLC): 1080 nM | GI50 (COLO 205 colon): 152 nM | TGI (COLO 205 colon): 3.48 µM | GI50 (MDA-MB-435 melanoma): 208 nM | TGI (MDA-MB-435 melanoma): 2570 nM | GI50 (M14 melanoma): 117 nM | TGI (M14 melanoma): 1490 nM | GI50 (SR leukemia): 32.1 nM | TGI (SR leukemia): 131 nM | GI50 (SF-539 CNS): 116 nM | TGI (SF-539 CNS): 2450 nM | GI50 (HCC-2998 colon): 104 nM | TGI (HCC-2998 colon): 1610 nM | GI50 (HOP-92 NSCLC): 84.9 nM | TGI (HOP-92 NSCLC): 1570 nM | GI50 (BT-549 breast): 97.7 nM | TGI (BT-549 breast): 1140 nM | GI50 (SN12C renal): 95.9 nM | TGI (SN12C renal): 10.9 µM | GI50 (CAKI-1 renal): 123 nM | TGI (CAKI-1 renal): 4.84 µM | GI50 (NCI-H226 lung): 75.9 nM | TGI (NCI-H226 lung): 656 nM | GI50 (NCI-H322M lung): 95.7 nM | TGI (NCI-H322M lung): 2970 nM | GI50 (NCI-H522 lung): 128 nM | TGI (NCI-H522 lung): 1400 nM | GI50 (LOX IMVI melanoma): 99 nM | TGI (LOX IMVI melanoma): 1100 nM | GI50 (NCI/ADR-RES ovarian): 291 nM | TGI (NCI/ADR-RES ovarian): 6.44 µM | GI50 (K-562 leukemia): 211 nM | TGI (K-562 leukemia): 1780 nM | GI50 (OVCAR-3 ovarian): 119 nM | TGI (OVCAR-3 ovarian): 10.4 µM | GI50 (CCRF-CEM leukemia): 106 nM | TGI (CCRF-CEM leukemia): 1050 nM | GI50 (HS 578T breast): 40.5 nM | TGI (HS 578T breast): 269 nM | GI50 (UACC-257 melanoma): 316 nM | TGI (UACC-257 melanoma): 1560 nM | GI50 (ACHN renal): 81.2 nM | TGI (ACHN renal): 2550 nM
